Measured values: US11406594B2, “Oleogel compositions for retinal drug delivery” (University of Florida Research Foundation, Inc., priority 2017, dated 2022)
Structures can show the parent of a compound that is named as a salt. Where two headings read alike, the source gives them in different places.

Key:
[1] = Solubility limit of drug in PBS; settings: 25 °C, aqueous buffer
Excerpt: (§1) A significant parameter for the behavior of the disclosed drug delivery compositions is drug solubility in an aqueous environment and in hydrophobic environment, such as the soybean oil used in the examples described herein. Without wishing to be bound by a particular theory, it is possible that diffusion of the drug in the external medium (PBS) is a rate limiting step. Accordingly, solubility of the drug in this phase is crucial for modeling calculations of drug release. Solubility in the oil phase was estimated by preparing drug delivery compositions with different concentrations of drug, and observing the samples under a microscope.

[2] = Solubility limit of drug in oil phase of drug delivery composition (microscopy for visible drug particles)
Excerpt: as §1

[3] = apparent wt %, soybean oil phase, estimated from visible drug particles

solubility ([1]; PBS)	Solubility Limit in Oil Phase of Drug Delivery Composition [2]	Solubility Limit in Oil Phase of Drug Delivery Composition [2, 3]	SMILES	solubility [1]
> 89 µg/mL	<0.1%		C[C@@H]1C[C@H]2[C@@H]3CCC4=CC(=O)C=C[C@]4(C)[C@@]3(F)[C@@H](O)C[C@]2(C)[C@@]1(O)C(=O)COP(=O)(O)O [Dexamethasone Phosphate]	
		1%-3%	C[C@@H]1C[C@H]2[C@@H]3CCC4=CC(=O)C=C[C@]4(C)[C@@]3(F)[C@@H](O)C[C@]2(C)[C@@]1(O)C(=O)CO [Dexamethasone]	
> 89 µg/mL		0.1%-1%	CC(C)(C)NC[C@H](O)COc1nsnc1N1CCOCC1 [Timolol Maleate]	
			CN[C@H](CC(C)C)C(=O)N[C@H]1C(=O)N[C@@H](CC(N)=O)C(=O)N[C@H]2C(=O)N[C@H]3C(=O)N[C@H](C(=O)N[C@H](C(=O)O)c4cc(O)cc(O)c4-c4cc3ccc4O)[C@H](O)c3ccc(c(Cl)c3)Oc3cc2cc(c3O[C@@H]2O[C@H](CO)[C@@H](O)[C@H](O)[C@H]2O[C@H]2C[C@](C)(N)[C@H](O)[C@H](C)O2)Oc2ccc(cc2Cl)[C@H]1O [Vancomycin Hydrochloride]	> 89 µg/mL
